target: T1, Human MTHFD2 (Homo sapiens, UniProt P13995); test: MTHFD2 Activity Assay (dehydrogenase activity, diaphorase/resazurin coupled fluorescence); assay type: biochemical; details: inhibitory activity (IC50 and/or binding constant); 0.2 nM MTHFD2, 11 concentrations
T1 construct: residues 36-350 in Uniport ID P13995; His6 (N); made in house; host or cells: E. coli
T1 sequence (P13995 36-350): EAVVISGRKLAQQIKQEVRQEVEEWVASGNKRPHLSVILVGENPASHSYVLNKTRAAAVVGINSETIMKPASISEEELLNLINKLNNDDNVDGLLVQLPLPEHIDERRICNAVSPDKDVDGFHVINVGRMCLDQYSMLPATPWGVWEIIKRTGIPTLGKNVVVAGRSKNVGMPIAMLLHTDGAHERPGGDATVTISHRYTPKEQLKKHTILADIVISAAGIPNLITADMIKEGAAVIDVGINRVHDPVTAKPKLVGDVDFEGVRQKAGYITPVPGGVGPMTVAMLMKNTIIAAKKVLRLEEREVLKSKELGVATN
How it was run: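 His6-tagged MTHFD2 (res. 36-350), E. coli-expressed, at 0.2 nM preincubated with compound 15 min in Hepes pH 8.0/MgCl2/KH2PO4 buffer; 70 μM CH2-THF, 1 mM NAD+ added with resazurin/diaphorase, 30 min, EDTA stop. Resorufin fluorescence (ex 525/em 598); IC50 from 11-point 4-parameter fit.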

SMILES | IC50
Cn1c(Nc2ccccc2)nc2c1c(=O)n(Cc1ccc(Cl)c(Cl)c1)c(=O)n2C [Example 127, 1-(3,4-dichlorobenzyl)-3,7-dimethyl-8-(phenylamino)-1H-purine-2,6(3H,7H)-dione] | 1000 to 5000 nM
Cn1c(NC2(CO)CCCC2)nc2c1c(=O)n(Cc1ccc(C(F)(F)F)cc1)c(=O)n2C [Example 128, 8-(1-(hydroxymethyl)cyclopentylamino)-3,7-dimethyl-1-(4-(trifluoromethyl)benzyl)-1H-purine-2,6(3H,7H)-dione] | > 10000 nM
C[C@@H](Nc1nc2c(c(=O)n(Cc3ccc(Cl)c(Cl)c3)c(=O)n2C)n1C)C(=O)O [Example 129, (R)-2-(1-(3,4-dichlorobenzyl)-3,7-dimethyl-2,6-dioxo-2,3,6,7-tetrahydro-1H-purin-8-ylamino)propanoic acid] | 1000 to 5000 nM
Cn1c(Nc2cccc(C#N)c2)nc2c1c(=O)n(Cc1ccc(Cl)c(Cl)c1)c(=O)n2C [Example 130, 3-(1-(3,4-dichlorobenzyl)-3,7-dimethyl-2,6-dioxo-2,3,6,7-tetrahydro-1H-purin-8-ylamino)benzonitrile] | 1000 to 5000 nM
Cn1c(NCCC#N)nc2c1c(=O)n(Cc1ccc(Cl)c(Cl)c1)c(=O)n2C [Example 131, 3-(1-(3,4-dichlorobenzyl)-3,7-dimethyl-2,6-dioxo-2,3,6,7-tetrahydro-1H-purin-8-ylamino)propanenitrile] | 1000 to 5000 nM
Cn1c(NCC(=O)O)nc2c1c(=O)n(Cc1ccc(Cl)c(Cl)c1)c(=O)n2C [Example 134, 2-(1-(3,4-dichlorobenzyl)-3,7-dimethyl-2,6-dioxo-2,3,6,7-tetrahydro-1H-purin-8-ylamino)acetic acid] | 1000 to 5000 nM
Cn1c(Nc2cn[nH]c2)nc2c1c(=O)n(Cc1ccc(Cl)c(Cl)c1)c(=O)n2C [Example 135] | 1000 to 5000 nM
Cn1c(-n2cc(N)cn2)nc2c1c(=O)n(Cc1ccc(Cl)c(Cl)c1)c(=O)n2C [Example 136] | 10 to 1000 nM
Cn1c(NCc2ccccc2)nc2c1c(=O)n(Cc1ccc(Cl)c(Cl)c1)c(=O)n2C [Example 137, 8-(benzylamino)-1-(3,4-dichlorobenzyl)-3,7-dimethyl-1H-purine-2,6(3H,7H)-dione] | 5000 to 10000 nM
Cn1c(Nc2nccc(O)n2)nc2c1c(=O)n(Cc1ccc(Cl)c(Cl)c1)c(=O)n2C [Example 138, 1-(3,4-dichlorobenzyl)-8-(4-hydroxypyrimidin-2-ylamino)-3,7-dimethyl-1H-purine-2,6(3H,7H)-dione] | 10 to 1000 nM
Cn1c(NCc2ccccn2)nc2c1c(=O)n(Cc1ccc(Cl)c(Cl)c1)c(=O)n2C [Example 139, 1-(3,4-dichlorobenzyl)-3,7-dimethyl-8-(pyridin-2-ylmethylamino)-1H-purine-2,6(3H,7H)-dione] | 1000 to 5000 nM
Cn1c(Nc2cc[nH]c(=O)n2)nc2c1c(=O)n(Cc1ccc(Cl)c(Cl)c1)c(=O)n2C [Example 140, 1-(3,4-dichlorobenzyl)-3,7-dimethyl-8-(2-oxo-1,2-dihydropyrimidin-4-ylamino)-1H-purine-2,6(3H,7H)-dione] | 10 to 1000 nM
Cn1c(Nc2cc[nH]n2)nc2c1c(=O)n(Cc1ccc(Cl)c(Cl)c1)c(=O)n2C [Example 141, 8-(1H-pyrazol-3-ylamino)-1-(3,4-dichlorobenzyl)-3,7-dimethyl-1H-purine-2,6(3H,7H)-dione] | 1000 to 5000 nM
Cn1c(Nc2ccccc2C#N)nc2c1c(=O)n(Cc1ccc(Cl)c(Cl)c1)c(=O)n2C [Example 142, 2-(1-(3,4-dichlorobenzyl)-3,7-dimethyl-2,6-dioxo-2,3,6,7-tetrahydro-1H-purin-8-ylamino)benzonitrile] | 1000 to 5000 nM
Cn1c(-n2ncnc2N)nc2c1c(=O)n(Cc1ccc(Cl)c(Cl)c1)c(=O)n2C [Example 143, 8-(5-amino-1H-1,2,4-triazol-1-yl)-1-(3,4-dichlorobenzyl)-3,7-dimethyl-1H-purine-2,6(3H,7H)-dione] | 1000 to 5000 nM
Cn1c(NC2CC(F)(F)C2)nc2c1c(=O)n(Cc1ccc(C(F)(F)F)cc1)c(=O)n2C [Example 145, 8-(3,3-difluorocyclobutylamino)-3,7-dimethyl-1-(4-(trifluoromethyl)benzyl)-1H-purine-2,6(3H,7H)-dione] | > 10000 nM
Cn1c(Nc2ccccn2)nc2c1c(=O)n(Cc1ccc(Cl)c(Cl)c1)c(=O)n2C [Example 146, 1-(3,4-dichlorobenzyl)-3,7-dimethyl-8-(pyridin-2-ylamino)-1H-purine-2,6(3H,7H)-dione] | 10 to 1000 nM
Cn1c(NC2(C(=O)O)CC2)nc2c1c(=O)n(Cc1ccc(Cl)c(Cl)c1)c(=O)n2C [Example 147, 1-(1-(3,4-dichlorobenzyl)-3,7-dimethyl-2,6-dioxo-2,3,6,7-tetrahydro-1H-purin-8-ylamino)cyclopropanecarboxylic acid] | 10 to 1000 nM

SMILES | IC50
Cn1c(NC2(C(=O)O)CCCC2)nc2c1c(=O)n(Cc1ccc(Cl)c(Cl)c1)c(=O)n2C [Example 148, 1-(1-(3,4-dichlorobenzyl)-3,7-dimethyl-2,6-dioxo-2,3,6,7-tetrahydro-1H-purin-8-ylamino)cyclopentanecarboxylic acid] | 10 to 1000 nM
Cn1c(NC2(C(=O)O)CCCC2)nc2c1c(=O)n(Cc1ccc(C(F)(F)F)cc1)c(=O)n2C [Example 149, 1-(3,7-dimethyl-2,6-dioxo-1-(4-(trifluoromethyl)benzyl)-2,3,6,7-tetrahydro-1H-purin-8-ylamino)cyclopentanecarboxylic acid] | > 10000 nM
Cn1c(Nc2cccc(N)n2)nc2c1c(=O)n(Cc1ccc(Cl)c(Cl)c1)c(=O)n2C [Example 150, 8-(6-aminopyridin-2-ylamino)-1-(3,4-dichlorobenzyl)-3,7-dimethyl-1H-purine-2,6(3H,7H)-dione] | 10 to 1000 nM
Cn1c(NC(C(=O)O)C2CCCCC2)nc2c1c(=O)n(Cc1ccc(C(F)(F)F)cc1)c(=O)n2C (centres unmarked) [Example 151, 2-cyclohexyl-2-((3,7-dimethyl-2,6-dioxo-1-(4-(trifluoromethyl)benzyl)-2,3,6,7-tetrahydro-1H-purin-8-yl)amino)acetic acid] | > 10000 nM
Cn1cnc2c1c(=O)n(Cc1ccc(Cl)c(Cl)c1)c(=O)n2C [Example 152, 1-(3,4-dichlorobenzyl)-3,7-dimethyl-1H-purine-2,6(3H,7H)-dione] | 1000 to 5000 nM
Cn1c(N)nc2c1c(=O)n(Cc1ccc(Cl)c(Cl)c1)c(=O)n2C [Example 153, 8-amino-1-(3,4-dichlorobenzyl)-3,7-dimethyl-1H-purine-2,6(3H,7H)-dione] | 5000 to 10000 nM
COC(=O)c1ccc(Nc2nc3c(c(=O)n(Cc4ccc(Cl)c(Cl)c4)c(=O)n3C)n2C)cc1 [Example 154, Methyl 4-(1-(3,4-dichlorobenzyl)-3,7-dimethyl-2,6-dioxo-2,3,6,7-tetrahydro-1H-purin-8-ylamino)benzoate] | 1000 to 5000 nM
CN(C)CCc1nc2c(c(=O)n(Cc3ccc(Cl)c(Cl)c3)c(=O)n2C)n1C [Example 157, 1-(3,4-dichlorobenzyl)-8-(2-(dimethylamino)ethyl)-3,7-dimethyl-1H-purine-2,6(3H,7H)-dione] | 1000 to 5000 nM
Cn1c(CCO)nc2c1c(=O)n(Cc1ccc(Cl)c(Cl)c1)c(=O)n2C [Example 158, 1-(3,4-dichlorobenzyl)-8-(2-hydroxyethyl)-3,7-dimethyl-1H-purine-2,6(3H,7H)-dione] | 10 to 1000 nM
Cn1c(CCN2CCOCC2)nc2c1c(=O)n(Cc1ccc(Cl)c(Cl)c1)c(=O)n2C [Example 159, 1-(3,4-dichlorobenzyl)-3,7-dimethyl-8-(2-morpholinoethyl)-1H-purine-2,6(3H,7H)-dione] | 10 to 1000 nM
C=Cc1nc2c(c(=O)n(Cc3ccc(Cl)c(Cl)c3)c(=O)n2C)n1C [Example 160, 1-(3,4-dichlorobenzyl)-3,7-dimethyl-8-vinyl-1H-purine-2,6(3H,7H)-dione] | 1000 to 5000 nM
COC(=O)c1nc2c(c(=O)n(Cc3ccc(Cl)c(Cl)c3)c(=O)n2C)n1C [Example 161, Methyl 1-(3,4-dichlorobenzyl)-3,7-dimethyl-2,6-dioxo-2,3,6,7-tetrahydro-1H-purine-8-carboxylate] | 1000 to 5000 nM
CCOC(=O)Cc1nc2c(c(=O)n(Cc3ccc(Cl)c(Cl)c3)c(=O)n2C)n1C [Example 162, ethyl 2-(1-(3,4-dichlorobenzyl)-3,7-dimethyl-2,6-dioxo-2,3,6,7-tetrahydro-1H-purin-8-yl)acetate] | 5000 to 10000 nM
COC(=O)c1cc(Cn2c(=O)c3c(nc(NCCCO)n3C)n(C)c2=O)ccc1Cl [Example 165, Methyl 2-chloro-5-({8-[(3-hydroxypropyl)amino]-3,7-dimethyl-2,6-dioxo-2,3,6,7-tetrahydro-1H-purin-1-yl}methyl)benzoate] | 1000 to 5000 nM
Cn1c(NCCCO)nc2c1c(=O)n(Cc1ccc(Cl)c(CO)c1)c(=O)n2C [Example 166, 1-{[4-chloro-3-(hydroxymethyl)phenyl]methyl}-8-[(3-hydroxypropyl)amino]-3,7-dimethyl-2,3,6,7-tetrahydro-1H-purine-2,6-dione] | > 10000 nM
Cn1c(NCCCO)nc2ncn(Cc3ccc(Cl)c(Cl)c3)c(=O)c21 [Example 167, 1-[(3,4-dichlorophenyl)methyl]-8-[(3-hydroxypropyl)amino]-7-methyl-6,7-dihydro-1H-purin-6-one] | > 10000 nM
C[C@@H](Nc1nc2c(c(=O)n(Cc3ccc(Cl)c(Cl)c3)c(=O)n2C)n1C)C(=O)O [Example 169, (R)-2-(1-(3,4-dichlorobenzyl)-3,7-dimethyl-2,6-dioxo-2,3,6,7-tetrahydro-1H-purin-8-ylamino)propanoic acid] | 10 to 1000 nM

Source: patent US12187728B2 (Raze Therapeutics, Inc., priority 2015, dated 2025)
